# Patent US10858316B2, “Small molecule inhibitors of the MCL-1 oncoprotein and uses thereof” (University of Maryland, Baltimore, priority 2015, dated 2020)
# Molecular target: Mcl-1 (Homo sapiens (Human), UniProt Q07820)
# Assay: Fluorescence polarization competition assay (FPCA), Mcl-1 / FITC-Bak BH3 peptide
# Type: binding
# Settings: FPC assay; read-out: Mcl-1 Ki
# Description: The tagged protein was initially purified from the crude cell lysate by immobilized metal affinity chromatography (IMAC) chromatography (GE Healthcare Life Sciences), and after dialysis to remove the imidazole the affinity tag was cleaved using PreScission Protease (GE Healthcare Life Sciences). A Sephacryl S-200 size exclusion column was used as a final purification step before the protein was concentrated with a 10,000 MWCO centifugal filter concentrator (Millipore).
# Fluorescence polarization experiments were conducted using a BMG PHERAstar FS multimode microplate reader equipped with two PMTs for simultaneous measurements of the perpendicular and parallel fluorescence emission. The assays were performed in black polypropylene 384-well microplate (Costar) with a final volume of 20 microliter. […] Regression analysis was carried out using Origin (OriginLab, Northampton, Mass.) to fit the data to the Hill equation (1) to determine the initial binding affinity (KD) and the IC50 in the FPCA. For the fluorescence polarization competition titrations, an equation derived by Nikolovska-Coleska et al. was used to calculate the Ki from the IC50 data.
# The target molecules were assayed for their abilities to disrupt the Mcl-1-Bak-BH3 PPI in a fluorescence polarization competition (FPC) assay with Mcl-1 and FITC-labeled Bak-BH3 peptide. Further details on the FPC assay can be found in the Supporting Information.
# Mcl-1, sequence (Q07820 172-327): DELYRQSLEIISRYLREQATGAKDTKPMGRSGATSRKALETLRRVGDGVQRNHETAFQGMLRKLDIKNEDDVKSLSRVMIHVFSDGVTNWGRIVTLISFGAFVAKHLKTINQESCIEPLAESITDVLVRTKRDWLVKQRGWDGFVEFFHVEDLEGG
row,SMILES,Ki
1,O=C(O)C1Cc2ccccc2N(S(=O)(=O)c2ccccc2)C1 (racemic) [±-8a],193 µM
2,"O=C(O)C1CNc2ccccc2C1 (racemic) [±-6, 1,2,3,4-tetrahydroquinoline-3-carboxylic acid]",> 500 µM

# Same assay, conditions: FPCA
row,SMILES,Binding affinity to Mcl-1 in vitro
1,COC(=O)C1Cc2ccccc2N(S(=O)(=O)c2ccc(Oc3cc(C)c(Cl)c(C)c3)cc2)C1 (racemic) [±-9],no appreciable affinity

# Same assay, conditions: FPCA with FITC-Bak; Ki from IC50 by Nikolovska-Coleska equation; read-out: Mcl-1 Ki
row,SMILES,Ki
1,CC(C)CN(c1ccc(C(=O)Oc2ccccc2)c(O)c1)S(=O)(=O)c1ccc(Oc2ccccc2)cc1 [LC-4-134 21],> 500 µM
2,O=C(O)C1Cc2ccccc2N(S(=O)(=O)c2ccccc2)C1 (racemic) [±-8a],193 ± 24 µM
3,"O=C(O)c1cc(S(=O)(=O)Nc2ccc(-c3ccccc3)cc2)c2ccccc2c1O [Compound 3t, 4-(N-([1,1′-Biphenyl]-4-yl)sulfamoyl)-1-hydroxy-2-naphthoic Acid]",1.54 ± 0.46 µM
4,CC(C)CN(c1ccc(C(=O)NO)c(O)c1)S(=O)(=O)c1ccc(Oc2ccccc2)cc1 [LC-5-061 25],71 ± 5.8 µM
5,"O=C(O)c1cc(S(=O)(=O)Nc2ccccc2)c2ccccc2c1O [Compound 3l, 1-Hydroxy-4-(N-phenylsulfamoyl)-2-naphthoic acid]",106 ± 26 µM
6,"O=C(O)c1cc(S(=O)(=O)N2CCN(c3ccccc3)CC2)c2ccccc2c1O [Compound 3j, 1-Hydroxy-4-((4-phenylpiperazin-1-yl)sulfonyl)-2-naphthoic Acid]",4.54 ± 3.86 µM
7,"O=C(O)c1cc(S(=O)(=O)NCc2ccccc2)c2ccccc2c1O [Compound 3c, 4-(N-Benzylsulfamoyl)-1-hydroxy-2-naphthoic Acid]",56.3 ± 2.1 µM
8,CC(C)CN(c1ccc(C(=O)O)cc1)S(=O)(=O)c1ccc(F)cc1 [LC-3-025 8d],> 500 µM
9,O=C(O)C1Cc2ccccc2N(S(=O)(=O)c2ccc3ccccc3c2)C1 (racemic) [±-8e],59 ± 6 µM
10,COc1cc(N(CC(C)C)S(=O)(=O)c2ccc(Oc3ccccc3)cc2)ccc1C(=O)O [LC-5-106 19],107 ± 31.1 µM
11,"N#Cc1ccc(NS(=O)(=O)c2cc(C(=O)O)c(O)c3ccccc23)cc1 [Compound 3ab, 4-(N-(4-Cyanophenyl)sulfamoyl)-1-hydroxy-2-naphthoic Acid]",22.2 ± 1.6 µM
12,"CC(C)CN(c1ccc(Br)cc1)S(=O)(=O)c1cc(C(=O)O)c(O)c2ccccc12 [Compound 3ca, 4-(N-(4-Bromophenyl)-N-isobutylsulfamoyl)-1-hydroxy-2-naphthoic Acid]",0.566 µM
13,CC(C)CN(c1ccc(-c2cc(=O)[nH]o2)cc1)S(=O)(=O)c1ccc(Oc2ccccc2)cc1 [LC-5-069Toptop 26],> 500 µM
14,CC(C)CN(c1cccc(C(=O)O)c1)S(=O)(=O)c1ccc(F)cc1 [4jc177-6 18ad],> 500 µM
15,"CN(C)S(=O)(=O)c1cc(C(=O)O)c(O)c2ccccc12 [Compound 3h, 4-(N,N-Dimethylsulfamoyl)-1-hydroxy-2-naphthoic Acid]",25.7 ± 4.86 µM
16,"O=C(O)c1cc(S(=O)(=O)Nc2cccc(-c3ccccc3)c2)c2ccccc2c1O [Compound 3s, 4-(N-([1,1′-Biphenyl]-3-yl)sulfamoyl)-1-hydroxy-2-naphthoic Acid]",1.88 ± 0.62 µM
17,CC(C)CN(c1ccc(C#N)c(O)c1)S(=O)(=O)c1ccc(Oc2ccccc2)cc1 [LC-5-050 23],> 500 µM
18,Cc1ccc(S(=O)(=O)N(CC(C)C)c2ccc(C(=O)O)c(O)c2)cc1 [4jc117-2 13af],61.2 ± 4.49 µM
19,"O=C(O)c1cc(S(=O)(=O)N2CCCCC2)c2ccccc2c1O [Compound 3i, 1-Hydroxy-4-(piperidin-1-ylsulfonyl)-2-naphthoic Acid]",2.95 ± 0.43 µM

row,SMILES,Ki
1,"O=C(O)c1cc(S(=O)(=O)Nc2ccc(Oc3ccccc3)cc2)c2ccccc2c1O [Compound 3bb, 1-Hydroxy-4-(N-(4-phenoxyphenyl)sulfamoyl)-2-naphthoic Acid]",1.15 ± 0.28 µM
2,CC(C)CN(c1ccc(C(=O)O)cc1)S(=O)(=O)c1ccccc1 [LC-3-029 8a],> 500 µM
3,CC(C)CN(c1ccc(-c2nnn[nH]2)cc1)S(=O)(=O)c1ccc(Oc2ccccc2)cc1 [LC-5-068 24],3.3 ± 0.26 µM
4,"O=C(O)c1cc(S(=O)(=O)Nc2ccc(Oc3ccc(Cl)cc3)cc2)c2ccccc2c1O [Compound 3bh, 4-(N-(4-(4-Chlorophenoxy)phenyl)sulfamoyl)-1-hydroxy-2-naphthoic Acid]",0.173 µM
5,"O=C(O)c1cc(S(=O)(=O)NCc2cccc(Cl)c2)c2ccccc2c1O [Compound 3e, 4-(N-(3-Chlorobenzyl)sulfamoyl)-1-hydroxy-2-naphthoic Acid]",5.03 ± 2.78 µM
6,"O=C(O)c1cc(S(=O)(=O)Nc2ccc(C(F)(F)F)cc2)c2ccccc2c1O [Compound 3w, 1-Hydroxy-4-(N-(4-(trifluoromethyl)phenyl)sulfamoyl)-2-naphthoic Acid]",2.5 ± 0.65 µM
7,"O=C(O)c1ccc2c(c1)CCCN2S(=O)(=O)c1ccc(F)cc1 [LC-3-010, 1-((4-fluorophenyl)sulfonyl)-1,2,3,4-tetrahydroquinoline-6-carboxylic acid]",> 1000 µM
8,O=C(O)c1ccc(N(C2CCCC2)S(=O)(=O)c2ccc(-c3ccccc3)cc2)cc1O [LC-4-082 13bb],5.24 ± 0.694 µM
9,CC(C)CN(c1cccc(C(=O)O)c1)S(=O)(=O)c1ccc2ccccc2c1 [4jc177-3 18ab],61.7 ± 4.73 µM
10,CC(C)CN(c1cccc(C(=O)O)c1)S(=O)(=O)c1ccc(-c2ccccc2)cc1 [4jc177-4 18ac],> 500 µM
11,"COc1c(C(=O)O)cc(S(=O)(=O)N(CC(C)C)c2ccc(Br)cc2)c2ccccc12 [Compound 3cd, 4-(N-(4-Bromophenyl)-N-isobutylsulfamoyl)-1-methoxy-2-naphthoic Acid]",23.4 ± 2.6 µM
12,COC(=O)C1Cc2ccccc2N(S(=O)(=O)c2ccc(Oc3cc(C)c(Cl)c(C)c3)cc2)C1 (racemic) [±-9],> 500 µM
13,CC(C)CN(c1ccc(C(=O)O)c(O)c1)S(=O)(=O)c1ccc(Oc2ccc(Cl)cc2Cl)cc1 [LC-4-111 13aj],2.74 ± 0.258 µM
14,"O=C(O)C1CNc2ccccc2C1 (racemic) [±-6, 1,2,3,4-tetrahydroquinoline-3-carboxylic acid]",> 500 µM
15,Cc1cc(OCCCN2CC(C(=O)O)Cc3ccccc32)cc(C)c1Cl (racemic) [±-11],7.77 ± 1.39 µM
16,CC(C)CN(c1ccc(C(=O)O)c(O)c1)S(=O)(=O)c1ccc(Br)cc1 [LC-5-012 13ae],17 ± 1.5 µM
17,CC(C)CN(c1cccc(C(=O)O)c1)S(=O)(=O)c1ccccc1 [4jc177-1 18aa],> 500 µM
18,"N#Cc1cccc(NS(=O)(=O)c2cc(C(=O)O)c(O)c3ccccc23)c1 [Compound 3ad, 4-(N-(3-Cyanophenyl)sulfamoyl)-1-hydroxy-2-naphthoic Acid]",26.9 ± 0.6 µM
19,"O=C(O)c1cc(S(=O)(=O)NCc2ccccc2Cl)c2ccccc2c1O [Compound 3d, 4-(N-(2-Chlorobenzyl)sulfamoyl)-1-hydroxy-2-naphthoic Acid]",50.3 ± 11.8 µM

# Same assay, conditions: fluorescence polarization competition assay; read-out: Ki (μM) Mcl-1
row,SMILES,Ki
1,"CC(C)CN(c1ccc(C(=O)O)c(O)c1)S(=O)(=O)c1ccc2ccccc2c1 [Compound 4jc117-3, 2-hydroxy-4-(N-isobutylnaphthalene-2-sulfonamido)benzoic acid]",60.3 ± 24.4 µM

# Same assay, conditions: read-out: Mcl-1 Ki
row,SMILES,Ki
1,"O=C(O)C1Cc2ccccc2N(S(=O)(=O)c2ccc3ccccc3c2)C1 (racemic) [SF-5-134, (±)-1-(naphthalen-2-ylsulfonyl)-1,2,3,4-tetrahydroquinoline-3-carboxylic acid]",30 µM

# Same assay, conditions: ΔG=−RTlnKi from experimental Ki
row,Mcl-1 Exp ΔG,SMILES
1,-7.45 kcal/mol,O=C(O)c1cc(S(=O)(=O)N2CCN(Cc3ccccc3)CC2)c2ccccc2c1O [3k; SF-5-307]
2,-5.86 kcal/mol,O=C(O)c1cc(S(=O)(=O)NCc2ccccc2Cl)c2ccccc2c1O [3d; 5JC73-2]
3,-5.82 kcal/mol,CC(C)Oc1ccc(NS(=O)(=O)c2cc(C(=O)O)c(O)c3ccccc23)cc1 [3aa; SF-5-293]
4,-8.52 kcal/mol,"CC(C)CN(c1ccc(Br)cc1)S(=O)(=O)c1cc(C(=O)O)c(O)c2ccccc12 [Compound 3ca, 4-(N-(4-Bromophenyl)-N-isobutylsulfamoyl)-1-hydroxy-2-naphthoic Acid]"
5,-5.79 kcal/mol,O=C(O)c1cc(S(=O)(=O)NCc2ccccc2)c2ccccc2c1O [3c; SF-5-311]
6,-5.46 kcal/mol,NS(=O)(=O)c1cc(C(=O)O)c(O)c2ccccc12 [3b; SF-5-294]
7,-5.42 kcal/mol,O=C(O)c1cc(S(=O)(=O)Nc2ccccc2)c2ccccc2c1O [3l; SF-5-311]
8,-7.22 kcal/mol,O=C(O)c1cc(S(=O)(=O)NCc2cccc(Cl)c2)c2ccccc2c1O [3e; 5JC71]
9,-7.16 kcal/mol,O=C(O)c1cc(S(=O)(=O)Nc2cccc(Br)c2)c2ccccc2c1O [3n; TA-1-020]
10,-6.91 kcal/mol,O=C(O)c1cc(S(=O)(=O)Nc2ccccc2-c2ccccc2)c2ccccc2c1O [3r; LC-4-002]
11,-8.10 kcal/mol,O=C(O)c1cc(S(=O)(=O)Nc2ccc(Oc3ccccc3)cc2)c2ccccc2c1O [3bb; SF-5-299]
12,-7.38 kcal/mol,CC(C)c1ccc(NS(=O)(=O)c2cc(C(=O)O)c(O)c3ccccc23)cc1 [3y; 5JC74-2]
13,-7.81 kcal/mol,O=C(O)c1cc(S(=O)(=O)Nc2cccc(-c3ccccc3)c2)c2ccccc2c1O [3s; LC-3-192]
14,-7.80 kcal/mol,O=C(O)c1cc(S(=O)(=O)Nc2ccc(Cl)cc2)c2ccccc2c1O [3v; 5JC67]
15,-6.31 kcal/mol,"COc1c(C(=O)O)cc(S(=O)(=O)N(CC(C)C)c2ccc(Br)cc2)c2ccccc12 [Compound 3cd, 4-(N-(4-Bromophenyl)-N-isobutylsulfamoyl)-1-methoxy-2-naphthoic Acid]"
16,-7.93 kcal/mol,O=C(O)c1cc(S(=O)(=O)Nc2ccc(-c3ccccc3)cc2)c2ccccc2c1O [3t; LC-3-192]
17,-7.54 kcal/mol,O=C(O)c1cc(S(=O)(=O)N2CCCCC2)c2ccccc2c1O [3i; SF-5-263]

row,SMILES,Mcl-1 Exp ΔG
1,O=C(O)c1cc(S(=O)(=O)Nc2ccccc2Br)c2ccccc2c1O [3m; TA-1-019],-7.04 kcal/mol
2,O=C(O)c1cc(S(=O)(=O)Nc2ccc(C(F)(F)F)cc2)c2ccccc2c1O [3w; 5JC73-1],-7.64 kcal/mol
3,N#Cc1ccc(NS(=O)(=O)c2cc(C(=O)O)c(O)c3ccccc23)cc1 [3ab; TA-1-018],-6.35 kcal/mol
